The source of these data is ChEMBL document CHEMBL1126480, “Peptide azoles: A new class of biologically-active dipeptide mmetics” (Bioorg Med Chem Lett, 1993).

In one test the target is T1, Substance-P receptor (Cavia porcellus, UniProt P30547). In words: The compound was evaluated in vitro for the antagonistic activity against Tachykinin receptor 1 in guinea pig myenteric plexus longitudinal muscle strips. The note with it: read-out: pA2 (converted). It is filed as functional.
T1 sequence (P30547 whole entry): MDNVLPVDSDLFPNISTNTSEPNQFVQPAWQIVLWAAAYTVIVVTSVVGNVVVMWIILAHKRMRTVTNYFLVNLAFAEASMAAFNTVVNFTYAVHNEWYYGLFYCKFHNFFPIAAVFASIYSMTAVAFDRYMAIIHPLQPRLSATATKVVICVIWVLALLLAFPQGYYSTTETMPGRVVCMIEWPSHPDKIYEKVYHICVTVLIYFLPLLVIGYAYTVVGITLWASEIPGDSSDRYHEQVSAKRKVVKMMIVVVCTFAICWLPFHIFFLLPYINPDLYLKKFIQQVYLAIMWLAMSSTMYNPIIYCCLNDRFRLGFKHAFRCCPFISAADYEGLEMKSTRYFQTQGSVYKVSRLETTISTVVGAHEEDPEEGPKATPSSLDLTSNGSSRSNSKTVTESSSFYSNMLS
Turning to `CC(C)C[C@H](NC(=O)[C@@H](Cc1c[nH]c2ccccc12)NC(=O)[C@H](Cc1ccccc1)c1cnc([C@H](Cc2c[nH]c3ccccc23)NC(=O)[C@@H]2CCCN2)s1)C(=O)N[C@@H](Cc1ccccc1)C(N)=O`, the Kb is 0.126 µM.

The target of a further test is T1, Substance-P receptor. In words: The compound was evaluated in vitro for the antagonistic activity against substance P receptor in guinea pig myenteric plexus longitudinal muscle strips. The test is classed as functional. To be noted: read-out: pA2 (converted).
Turning to `CC(C)C[C@H](NC(=O)[C@@H](Cc1c[nH]c2ccccc12)NC(=O)[C@H](Cc1ccccc1)c1cnc([C@@H](Cc2c[nH]c3ccccc23)NC(=O)[C@@H]2CCCN2)s1)C(=O)N[C@@H](Cc1ccccc1)C(N)=O`, the Kb was 0.0398 µM.

Take `CC(C)C[C@H](NC(=O)[C@@H](Cc1c[nH]c2ccccc12)c1cnc(C(=O)[C@H](Cc2ccccc2)NC(=O)[C@@H](Cc2c[nH]c3ccccc23)NC(=O)[C@@H]2CCCN2)s1)C(=O)N[C@@H](Cc1ccccc1)C(N)=O`: the Kb is 1.26 µM.

For the molecule `CC(C)C[C@H](NC(=O)[C@@H](Cc1c[nH]c2ccccc12)NC(=O)[C@H](Cc1ccccc1)c1c[nH]c([C@@H](Cc2c[nH]c3ccccc23)NC(=O)[C@@H]2CCCN2)n1)C(=O)N[C@@H](Cc1ccccc1)C(N)=O`, the Kb was 0.2 µM.

In the case of `CC(C)C[C@H](NC(=O)[C@@H](Cc1c[nH]c2ccccc12)NC(=O)[C@H](Cc1ccccc1)c1cnc([C@@H](Cc2c[nH]c3ccccc23)NC(=O)[C@@H]2CCCN2)o1)C(=O)N[C@@H](Cc1ccccc1)C(N)=O`, the Kb is 0.501 µM.

Take H-PWFWLF-NH2: the Kb is 0.398 µM.
